Laboratory results published in patent US20230030607A1, “Novel oxygen pulse therapy method for treating COVID19 and viral, bacterial, fungal or parasitic respiratory and other diseases” (priority 2021, published 2023).
“And” between values parts separate entries of the source, which are not always exact repeats. Identical values can stand only once.

Key:
COVID-19 [1] = settings: hospitalized patients; cited from earlier work
COVID-19 [2] = settings: in vivo; cited from earlier work
SARS-CoV-2 [3] = tested on: SARS-CoV-2
SARS-CoV-2 [4] = settings: human, in vivo

Compound: CCN(CCO)CCCC(C)Nc1ccnc2cc(Cl)ccc12 (stereo not shown) [hydroxychloroquine]
- effect on 28-day mortality or the in-hospital course of COVID-19 (COVID-19 [1]): little or no effect
- benefit for treatment of COVID-19 (COVID-19 [2]): not been shown to offer any benefit

Compound: O=O [oxygen]
- use of the therapy in respiratory diseases including SARS-COVID19 infections (SARS-CoV-2 [3]; elders, adults and children, most of them immune depressed patients): satisfactory used
- new infection for COVID 19 at follow-up (SARS-CoV-2 [3]; human, in vivo): no new infection for COVID 19 has developed
- time to recovery (SARS-CoV-2 [3]; human, in vivo): 5 days and 3 days
- infection for COVID 19 at follow-up (SARS-CoV-2 [4]): no infection for COVID 19 has been developed

Compound: lopinavir/ritonavir
- effect on 28-day mortality or the in-hospital course of COVID-19 (COVID-19 [1]): little or no effect
